Reference: patent US12077503B2, “Substituted cyclic amides and their use as herbicides” (FMC CORPORATION, priority 2015, dated 2024)

Key:
Type in all cases: in vivo
[1] = test system: redroot pigweed (Amaranthus retroflexus); assay: Test G Post-Emergence Protocol; conditions: Amaranthus retroflexus, post-emergence, 312 h; for pest or weed control at 15.625 g/ha: 15.625 g ai/ha, evaluated after 13 days (100=total damage to plant; 0=no damage to plant), read-out: Pigweed, Redroot damage rating; for pest or weed control at 62.5 g/ha: 62.5 g ai/ha, read-out: Pigweed, Redroot damage rating (100=total damage to plant; 0=no damage to plant); for pest or weed control at 62.5 g/ha / pest or weed control at 250 g/ha: evaluated after 13 days; for pest or weed control at 250 g/ha: 250 g ai/ha, read-out: damage to plant, Pigweed, Redroot (100=total damage to plant; 0=no damage to plant)
In short: (§1)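 A glasshouse post-emergence test: 8-day-old plants sprayed at 15.625, 62.5 or 250 g/ha, then grown at 24/16 °C day/night with 14 h light and 65% humidity. Damage rated 13 days later, 0–100.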

corn (Zea mays) [2] = assay: Test G Post-Emergence Protocol; conditions: Zea mays, post-emergence, 312 h; for plant injury at 15.625 g/ha: 15.625 g ai/ha, evaluated after 13 days (100=total damage to plant; 0=no damage to plant), read-out: Corn damage rating; for plant injury at 62.5 g/ha: 62.5 g ai/ha, read-out: Corn damage rating (100=total damage to plant; 0=no damage to plant); for plant injury at 62.5 g/ha / plant injury at 250 g/ha: evaluated after 13 days; for plant injury at 250 g/ha: 250 g ai/ha, read-out: damage to plant, Corn (100=total damage to plant; 0=no damage to plant)
In short: as §1

[3] = test system: giant foxtail (Setaria faberi); assay: Test G Post-Emergence Protocol; conditions: Setaria faberi, post-emergence, 312 h; for pest or weed control at 15.625 g/ha: 15.625 g ai/ha, evaluated after 13 days (100=total damage to plant; 0=no damage to plant), read-out: Foxtail, Giant damage rating; for pest or weed control at 62.5 g/ha: 62.5 g ai/ha, read-out: Foxtail, Giant damage rating (100=total damage to plant; 0=no damage to plant); for pest or weed control at 62.5 g/ha / pest or weed control at 250 g/ha: evaluated after 13 days; for pest or weed control at 250 g/ha: 250 g ai/ha, read-out: damage to plant, Foxtail, Giant (100=total damage to plant; 0=no damage to plant)
In short: as §1

[4] = test system: ivy-leaved morning glory (Ipomoea hederacea); assay: Test G Post-Emergence Protocol; conditions: Ipomoea, post-emergence, 312 h; for pest or weed control at 15.625 g/ha: 15.625 g ai/ha, evaluated after 13 days (100=total damage to plant; 0=no damage to plant), read-out: Morningglory, Ivy-leaved damage rating; for pest or weed control at 62.5 g/ha: 62.5 g ai/ha, read-out: Morningglory, Ivy-leaved damage rating (100=total damage to plant; 0=no damage to plant); for pest or weed control at 62.5 g/ha / pest or weed control at 250 g/ha: evaluated after 13 days; for pest or weed control at 250 g/ha: 250 g ai/ha, read-out: damage to plant, Morningglory, Ivy-leaved (100=total damage to plant; 0=no damage to plant)
In short: as §1

[5] = test system: barnyardgrass (Echinochloa crus-galli); assay: Test G Post-Emergence Protocol; conditions: Echinochloa crus-galli, post-emergence, 312 h; for pest or weed control at 15.625 g/ha: 15.625 g ai/ha, evaluated after 13 days (100=total damage to plant; 0=no damage to plant), read-out: Barnyardgrass damage rating; for pest or weed control at 62.5 g/ha: 62.5 g ai/ha, read-out: Barnyardgrass damage rating (100=total damage to plant; 0=no damage to plant); for pest or weed control at 62.5 g/ha / pest or weed control at 250 g/ha: evaluated after 13 days; for pest or weed control at 250 g/ha: 250 g ai/ha, read-out: damage to plant, Barnyardgrass (100=total damage to plant; 0=no damage to plant)
In short: as §1

[6] = test system: velvetleaf (Abutilon theophrasti); assay: Test G Post-Emergence Protocol; conditions: Abutilon theophrasti, post-emergence, 312 h; for pest or weed control at 15.625 g/ha: 15.625 g ai/ha, evaluated after 13 days (100=total damage to plant; 0=no damage to plant), read-out: Velvetleaf damage rating; for pest or weed control at 62.5 g/ha: 62.5 g ai/ha, read-out: Velvetleaf damage rating (100=total damage to plant; 0=no damage to plant); for pest or weed control at 62.5 g/ha / pest or weed control at 250 g/ha: evaluated after 13 days; for pest or weed control at 250 g/ha: 250 g ai/ha, read-out: damage to plant, Velvetleaf (100=total damage to plant; 0=no damage to plant)
In short: as §1

[7] = test system: redroot pigweed (Amaranthus retroflexus); assay: Test G Pre-Emergence Protocol; conditions: Amaranthus retroflexus, pre-emergence, 312 h, evaluated after 13 days; for pest or weed control at 15.625 g/ha: 15.625 g ai/ha; for pest or weed control at 15.625 g/ha / pest or weed control at 250 g/ha: read-out: Pigweed, Redroot damage rating (100=total damage to plant; 0=no damage to plant); for pest or weed control at 62.5 g/ha: 62.5 g ai/ha, 100=total damage to plant, 0=no damage to plant, read-out: plant damage rating, Pigweed, Redroot; for pest or weed control at 250 g/ha: 250 g ai/ha
In short: (§2)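 Pre-emergence spray, 15.625/62.5/250 g/ha, vehicle acetone:water 50:50 + 0.5% Tween 20, applied 1 d after sowing. Glasshouse 24/16° C, 14 h light, 65% RH, watered twice daily. Visual damage rating at 13 d, 0–100 scale.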

corn (Zea mays) [8] = assay: Test G Pre-Emergence Protocol; conditions: Zea mays, pre-emergence, 312 h, evaluated after 13 days; for plant injury at 15.625 g/ha: 15.625 g ai/ha; for plant injury at 15.625 g/ha / plant injury at 250 g/ha: read-out: Corn damage rating (100=total damage to plant; 0=no damage to plant); for plant injury at 62.5 g/ha: 62.5 g ai/ha, 100=total damage to plant, 0=no damage to plant, read-out: plant damage rating, Corn; for plant injury at 250 g/ha: 250 g ai/ha
In short: as §2

[9] = test system: giant foxtail (Setaria faberi); assay: Test G Pre-Emergence Protocol; conditions: Setaria faberi, pre-emergence, 312 h, evaluated after 13 days; for pest or weed control at 15.625 g/ha: 15.625 g ai/ha; for pest or weed control at 15.625 g/ha / pest or weed control at 250 g/ha: read-out: Foxtail, Giant damage rating (100=total damage to plant; 0=no damage to plant); for pest or weed control at 62.5 g/ha: 62.5 g ai/ha, 100=total damage to plant, 0=no damage to plant, read-out: plant damage rating, Foxtail, Giant; for pest or weed control at 250 g/ha: 250 g ai/ha
In short: as §2

[10] = test system: ivy-leaved morning glory (Ipomoea hederacea); assay: Test G Pre-Emergence Protocol; conditions: Ipomoea, pre-emergence, 312 h, evaluated after 13 days; for pest or weed control at 15.625 g/ha: 15.625 g ai/ha, read-out: Morning-glory, Ivy-leaved damage rating (100=total damage to plant; 0=no damage to plant); for pest or weed control at 62.5 g/ha: 62.5 g ai/ha, 100=total damage to plant, 0=no damage to plant, read-out: plant damage rating, Morningglory, Ivy-leaved; for pest or weed control at 250 g/ha: 250 g ai/ha, read-out: Morningglory, Ivy-leaved damage rating (100=total damage to plant; 0=no damage to plant)
In short: as §2

[11] = test system: barnyardgrass (Echinochloa crus-galli); assay: Test G Pre-Emergence Protocol; conditions: Echinochloa crus-galli, pre-emergence, 312 h, evaluated after 13 days; for pest or weed control at 15.625 g/ha: 15.625 g ai/ha, read-out: Barnyard grass damage rating (100=total damage to plant; 0=no damage to plant); for pest or weed control at 62.5 g/ha: 62.5 g ai/ha, 100=total damage to plant, 0=no damage to plant, read-out: plant damage rating, Barnyardgrass; for pest or weed control at 250 g/ha: 250 g ai/ha, read-out: Barnyardgrass damage rating (100=total damage to plant; 0=no damage to plant)
In short: as §2

[12] = test system: velvetleaf (Abutilon theophrasti); assay: Test G Pre-Emergence Protocol; conditions: Abutilon theophrasti, pre-emergence, 312 h, evaluated after 13 days; for pest or weed control at 15.625 g/ha: 15.625 g ai/ha; for pest or weed control at 15.625 g/ha / pest or weed control at 250 g/ha: read-out: Velvetleaf damage rating (100=total damage to plant; 0=no damage to plant); for pest or weed control at 62.5 g/ha: 62.5 g ai/ha, 100=total damage to plant, 0=no damage to plant, read-out: plant damage rating, Velvetleaf; for pest or weed control at 250 g/ha: 250 g ai/ha
In short: as §2

SMILES | pest or weed control at 15.625 g/ha [1] [%] | pest or weed control at 62.5 g/ha [1] [%] | pest or weed control at 250 g/ha [1] [%] | plant injury at 15.625 g/ha (corn (Zea mays) [2]) [%] | plant injury at 62.5 g/ha (corn (Zea mays) [2]) [%] | plant injury at 250 g/ha (corn (Zea mays) [2]) [%] | pest or weed control at 15.625 g/ha [3] [%] | pest or weed control at 62.5 g/ha [3] [%] | pest or weed control at 250 g/ha [3] [%] | pest or weed control at 15.625 g/ha [4] [%] | pest or weed control at 62.5 g/ha [4] [%] | pest or weed control at 250 g/ha [4] [%] | pest or weed control at 15.625 g/ha [5] [%] | pest or weed control at 62.5 g/ha [5] [%] | pest or weed control at 250 g/ha [5] [%] | pest or weed control at 15.625 g/ha [6] [%] | pest or weed control at 62.5 g/ha [6] [%] | pest or weed control at 250 g/ha [6] [%] | pest or weed control at 15.625 g/ha [7] [%] | pest or weed control at 62.5 g/ha [7] [%] | other results
CCc1nc(NC(=O)[C@@H]2C(=O)N(C)C[C@H]2c2ccc(C(F)(F)F)cc2)n[nH]1 (racemic) [Compound 1610] | 0 | 0 | 0 | 0 | 0 | 0 | 0 | 0 | 0 | 0 | 0 | 0 | 0 | 0 | 0 | 0 | 0 | 0 | 0 | 0 | pest or weed control at 250 g/ha [7]: 0%; plant injury at 15.625 g/ha (corn (Zea mays) [8]): 0%; plant injury at 62.5 g/ha (corn (Zea mays) [8]): 0%; plant injury at 250 g/ha (corn (Zea mays) [8]): 0%; pest or weed control at 15.625 g/ha [9]: 0%; pest or weed control at 62.5 g/ha [9]: 0%; pest or weed control at 250 g/ha [9]: 0%; pest or weed control at 15.625 g/ha [10]: 0%; pest or weed control at 62.5 g/ha [10]: 0%; pest or weed control at 250 g/ha [10]: 0%; pest or weed control at 15.625 g/ha [11]: 0%; pest or weed control at 62.5 g/ha [11]: 0%; pest or weed control at 250 g/ha [11]: 0%; pest or weed control at 15.625 g/ha [12]: 0%; pest or weed control at 62.5 g/ha [12]: 0%; pest or weed control at 250 g/ha [12]: 0%
CN1C[C@H](c2ccc(C(F)(F)F)cc2)[C@@H](C(=O)Nc2ccc(F)cc2[N+](=O)[O-])C1=O (racemic) [Compound 1425] | 20 | 30 | 40 | 10 | 10 | 10 | 10 | 40 | 50 | 0 | 0 | 0 | 0 | 20 | 20 | 0 | 0 | 0 | 0 | 0 | pest or weed control at 250 g/ha [7]: 0%; plant injury at 15.625 g/ha (corn (Zea mays) [8]): 0%; plant injury at 62.5 g/ha (corn (Zea mays) [8]): 0%; plant injury at 250 g/ha (corn (Zea mays) [8]): 0%; pest or weed control at 15.625 g/ha [9]: 10%; pest or weed control at 62.5 g/ha [9]: 80%; pest or weed control at 250 g/ha [9]: 80%; pest or weed control at 15.625 g/ha [10]: 0%; pest or weed control at 62.5 g/ha [10]: 0%; pest or weed control at 250 g/ha [10]: 0%; pest or weed control at 15.625 g/ha [11]: 0%; pest or weed control at 62.5 g/ha [11]: 40%; pest or weed control at 250 g/ha [11]: 60%; pest or weed control at 15.625 g/ha [12]: 0%; pest or weed control at 62.5 g/ha [12]: 0%; pest or weed control at 250 g/ha [12]: 0%
